# Data as given in BindingDB's records for doi:10.7270/Q2PR7TCX (The Scripps Research Institute Molecular Screening Center, 2007).
# Target: Steroidogenic factor 1 (Homo sapiens, UniProt Q13285)
# Experiment: inhibition of SF-1 LBD-driven luciferase – cell-based, CHO-K1, Gal4-SF-1 LBD, luciferase luminescence, counter-screen for RORA inhibitor project, dose response (AID 611)
# Settings: not given
# Steroidogenic factor 1, sequence (Q13285 whole entry, the tested form may be a part): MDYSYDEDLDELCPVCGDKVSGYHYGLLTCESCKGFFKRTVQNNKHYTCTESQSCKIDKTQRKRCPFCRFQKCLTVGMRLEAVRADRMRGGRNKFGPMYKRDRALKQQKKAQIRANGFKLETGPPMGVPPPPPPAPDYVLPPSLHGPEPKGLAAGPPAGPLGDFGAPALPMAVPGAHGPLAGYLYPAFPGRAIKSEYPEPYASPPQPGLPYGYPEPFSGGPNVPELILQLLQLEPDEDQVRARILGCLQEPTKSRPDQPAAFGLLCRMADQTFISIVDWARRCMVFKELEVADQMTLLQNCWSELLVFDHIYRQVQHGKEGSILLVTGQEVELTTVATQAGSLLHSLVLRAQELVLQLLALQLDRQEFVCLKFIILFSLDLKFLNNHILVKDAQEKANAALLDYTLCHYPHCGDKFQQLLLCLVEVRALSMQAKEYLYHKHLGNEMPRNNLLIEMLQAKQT
row,SMILES,IC50
1,COc1ccc(CCNc2nnc(Sc3nnnn3-c3ccccc3)s2)cc1OC [MLS000056567],7.21 µM
2,CC(=O)Nc1ccc(SCC(=O)c2cc(C)n(Cc3cccs3)c2C)cc1 [MLS000058142],4.41 µM
3,O=C(Nc1ccc(N2CCOCC2)cc1)c1cnsn1 [MLS000063695],6.57 µM
4,CC1CCc2nc(NC(=O)c3ccco3)sc2C1 (stereo not given) [MLS000063711],3.29 µM
5,COc1ccc(C(=O)Nn2c(SCC(=O)NCc3ccco3)nc3ccccc3c2=O)cc1 [MLS000097349],5.3 µM
6,O=C(NCCOc1ccccc1)c1ccc2c(c1)OCO2 [MLS000100028],9.86 µM
7,Cc1ccc(-c2nnc(SCC(=O)Nc3ccccc3F)o2)cc1 [MLS000114725],9.9 µM
8,COc1ccc(CNC(=O)c2cc3c(C)nc4ccccc4c3o2)c(OC)c1 [MLS000118441],> 3.67 µM
9,CCCCS(=O)(=O)/C=C\C=C/S(=O)(=O)CCCC [SMR000020833],1.64 µM
10,c1ccc2c(c1)CCN(c1ncnc3c1[nH]c1ccccc13)C2 [SMR000039631],2.99 µM
11,c1ccc(-c2nc(N3CCCCCC3)c3ccccc3n2)nc1 [SMR000046752],4.13 µM
12,COCCn1c(C)cc(C(=O)COC(=O)c2[nH]nc3ccccc23)c1C [SMR000068187],8.16 µM
13,COc1cc(NS(=O)(=O)c2ccc(C)cc2)c2ncccc2c1 [SMR000071147],5.2 µM
14,"COC(=O)/C(=C1/Oc2cc(C)oc(=O)c2S1)C(F)(F)F [methyl (2E)-3,3,3-tris(fluoranyl)-2-(6-methyl-4-oxidanylidene-[1,3]oxathiolo[4,5-c]pyran-2-ylidene)propanoate]",4.32 µM
15,"CCCCCOC(=O)c1[nH]c2c(c1C)C(=O)CC(c1ccco1)C2 (stereo not given) [pentyl 6-(furan-2-yl)-3-methyl-4-oxidanylidene-1,5,6,7-tetrahydroindole-2-carboxylate]",1.87 µM

# Now from value to compound:
row,IC50,SMILES
1,4.65 µM,O=C(NC1=NCCS1)C1COc2ccccc2O1 (stereo not given) [MLS000056062]
2,0.841 µM,CC(=O)Nc1ccccc1OCC(=O)c1cc(C)n(Cc2cccs2)c1C [MLS000056239]
3,4.32 µM,Cc1cc(C)n(-c2ccc3cccc(NS(C)(=O)=O)c3n2)n1 [MLS000062301]
4,9.29 µM,Cc1cc(NC(=O)c2ccc3c(c2)OCCO3)no1 [MLS000064124]
5,7.71 µM,CCN(C(=O)c1ccc(C(C)(C)C)cc1)c1nnc(Cn2nnc3ccccc32)s1 [MLS000072751]
6,5.78 µM,O=C(CSc1nnnn1-c1ccccc1)Nc1nsc(-c2ccc(Cl)cc2)n1 [MLS000085595]
7,7.05 µM,COc1ccc(-c2nc(CSCC(=O)NCc3ccco3)c(C)o2)cc1 [MLS000089353]
8,0.656 µM,COCCNC(=O)CSCc1nc(-c2ccc(SC)cc2)oc1C [MLS000089367]
9,6.81 µM,CN(C)c1ccc(-c2nc3ccccc3n2C)cc1 [MLS000089904]
10,> 4.06 µM,O=C(NCc1ccco1)c1ccc2nc3sc4c(c3c(=O)n2c1)CCCC4 [MLS000091875]
11,0.44 µM,O=c1cc(N2CCN(c3cccc(Cl)c3)CC2)[nH]c(=O)n1C1CCCCC1 [MLS000094380]
12,4.16 µM,O=C(Nc1nc2cc3c(cc2s1)OCO3)C1=COCCO1 [MLS000103798]
13,3.04 µM,CN(C)c1ccc(NC(=S)c2ccccn2)cc1 [MLS000111989]
14,3.4 µM,Cc1cc(C=Nn2cnnc2)c(C)n1-c1ccc(OCc2ccc(F)cc2)cc1 [MLS000112167]
15,7.58 µM,Cc1cc(C=Nn2cnnc2)c(C)n1-c1ccc(OCc2ccccc2F)cc1 [MLS000112180]
16,1.91 µM,"O=C(Nc1nc2ccccc2[nH]1)c1ccccc1F [N-1,3-dihydro-2H-benzimidazol-2-ylidene-2-fluorobenzamide]"
17,> 11 µM,"O=C(Nc1nc2ccccc2[nH]1)c1ccc(F)cc1 [N-1,3-dihydro-2H-benzimidazol-2-ylidene-4-fluorobenzamide]"
18,0.237 µM,"N#Cc1c(NC(=O)CSc2nc[nH]n2)sc2c1CCCCC2 [N-(3-cyano-5,6,7,8-tetrahydro-4H-cyclohepta[b]thien-2-yl)-2-(1H-1,2,4-triazol-3-ylthio)acetamide]"
19,5.97 µM,"Cc1ccc(-c2csc(N3CCC(NS(=O)(=O)c4ccc5c(c4)OCCO5)CC3)n2)cc1 [N-[1-[4-(4-methylphenyl)-1,3-thiazol-2-yl]piperidin-4-yl]-2,3-dihydro-1,4-benzodioxine-6-sulfonamide]"
20,21.9 µM,c1ccc(CNc2ncnc3ccccc23)cc1 [N-benzylquinazolin-4-amine]
21,7.19 µM,c1ccc2nc(-c3nc4ccccc4[nH]3)ccc2c1 [SMR000008748]
22,5.99 µM,O=S1(=O)C=C(Sc2nc3cc(Cl)ccc3o2)c2ccccc21 [SMR000019512]
23,4.92 µM,CC(=O)c1c(C)[nH]c(C(=O)Nc2ccc(C)cn2)c1C [SMR000026816]

# Same assay, conditions: inactive by the depositor's call
row,SMILES,IC50
1,CCOC(=O)c1c(C)[nH]c(C(=O)C(C)OC(=O)c2cccc(OCc3c(C)noc3C)c2)c1C (stereo not given) [MLS000054923],10.6 µM
2,Fc1ccc2[nH]c3c(N4CCSCC4)ncnc3c2c1 [MLS000078401],10.4 µM
3,CCOc1cc(C(=O)N2CCc3cc(OC)c(OC)cc3C2)ccc1OC(F)F [MLS000083614],10.6 µM
4,CCCOC(=O)c1[nH]c2c(c1C)C(=O)CC(c1cc(OC)c(OC)c(OC)c1)C2 (stereo not given) [MLS000116504],11.5 µM

# Next, values leading:
row,IC50,SMILES
1,13.3 µM,Cc1cc(C)nc(SCC(=O)Nc2ccc(N3CCOCC3)c(Cl)c2)n1 [MLS000066583]
2,11.3 µM,c1ccc(CN2CCN(c3ncnc4c3[nH]c3ccccc34)CC2)cc1 [MLS000078384]
3,12.2 µM,CC1(C)COCN1S(=O)(=O)c1ccc(C(=O)Nc2nnc(-c3ccc(Cl)s3)o2)cc1 [MLS000086346]
